Assay results as given in patent publication US20260199529A1, “EPITHELIAL CELL ADHESION MOLECULE-SPECIFIC PEPTIDE CONJUGATES AND METHODS” (REGENTS OF THE UNIVERSITY OF MICHIGAN, priority 2022, published 2026).
“Also recorded” adds a separate entry of the source. Where a SMILES comes first, the peptide text is derived from it. Where no end group is shown, it is not given here. The star is where a group is joined. X1 = CC1(C)C(=CC=C2CCCC(C=CC3=[N+](CCCCS(=O)(=O)[O-])c4ccc(S(=O)(=O)O)cc4C3(C)C)=C2Oc2ccc(S(=O)(=O)O)cc2)N(CCCCCC(=O)NCCN2C(=O)CC(*)C2=O)c2ccc(S(=O)(=O)O)cc21

How the values were obtained:
EpCAM [1] = molecular target: T1, EpCAM (Homo sapiens, UniProt P16422); assay: siRNA knockdown validation of binding (confocal microscopy); format: cell-based; conditions: for fluorescence intensity / cell surface staining, siEpCAM versus siCL: Hep3B (EpCAM+) cells, siRNA against EpCAM vs control siRNA
T1 construct: endogenous in cells; host or cells: Hep3B human HCC cells (A1 also names human SG231 ICC cells)
T1 sequence (P16422 24-314): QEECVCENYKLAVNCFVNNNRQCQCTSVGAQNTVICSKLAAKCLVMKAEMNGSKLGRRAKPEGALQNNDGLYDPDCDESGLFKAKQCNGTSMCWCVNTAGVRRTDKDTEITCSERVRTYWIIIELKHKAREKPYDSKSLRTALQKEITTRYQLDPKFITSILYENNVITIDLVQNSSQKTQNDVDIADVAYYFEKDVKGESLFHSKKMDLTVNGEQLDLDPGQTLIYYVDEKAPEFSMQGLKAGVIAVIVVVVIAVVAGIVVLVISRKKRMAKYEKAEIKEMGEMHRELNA
Procedure: (§1) An ANOVA was fit with terms for 3 treatments, 2 siRNA effects, and their interactions using slides in triplicate. […] Fluorescence intensities were measured from 10 cells chosen randomly from 3 slides. * P<0.01 by pairwise comparisons.
Specific binding of HPD*-IRDye800 to EpCAM was validated using siRNA knockdown in human SG231 (EpCAM+) ICC cells. Preliminary data were obtained using Hep3B (EpCAM+) human HCC cells. The cells were treated with siRNA against EpCAM (siEpCAM) and control siRNA (siCL).

EpCAM [2] = molecular target: T1, EpCAM; assay: co-localization assay with anti-EpCAM-AF488 on Hep3B cells; format: cell-based
Procedure: (§2) A Pearson's correlation coefficient of p=0.81 was measured from the merged image. […] B) An apparent dissociation constant of kd=43 nM, R^2=0.99 was measured for HPD*-IRDye800 binding to Hep3B cells. The equilibrium dissociation constant kd=1/ka was calculated by performing using a least square fit of the data to the non-linear equation I=(I0+ImaxKa[X])/(I0+Ka[X]). I0 and Imax are the initial and maximum fluorescence intensities, corresponding to no peptide and at saturation, respectively, and [X] represents the concentration of the bound peptide. Results are the mean values from 3 independent experiments. C) Peptide stability in mouse serum was measured by intravenously injecting HPD*-IRDye800 (200 μM in 200 μL of PBS) in mice (n=5). Serum was collected at various time points from 0-24 hours post-injection. The fluorescence intensity I(t) was measured and fit to a first-order kinetics model I(t)=Io+A×exp(−Bt).
Finally, specific binding of HPD*-IRDye800 to EpCAM was validated using a co-localization assay. Binding by HPD*-IRDye800 and anti-EpCAM-AF488 to the surface (arrows) of Hep3B cells co-localized with a correlation of p=0.81 measured on the merged image, FIG. 3A.

[3] = serum stability (half-life) after intravenous injection in mice; format: in vivo; conditions: 40 nmol, mouse serum, 0-24 hours, first-order kinetics fit, read-out: serum half-life T1/2 (converted)
Procedure: as §2
The serum half-life of HPD*-IRDye800 was measured to assess peptide stability. HPD*-IRDye800 was injected intravenously in live mice. Fluorescence intensities were measured time points ranging from 0-24 hours, and fit to a first order kinetic model.

human HCC tumor = assay: ex vivo immunofluorescence of resected xenograft liver sections; set-up: species or system mouse; conditions: immunofluorescence on resected liver sections
Source text: After imaging was completed as described in Example 6, the mice were euthanized, and the livers were resected, formalin-fixed, and sectioned to confirm EpCAM expression in human […] tumors. […] The merged image confirms co-localization of peptide and antibody binding to HCC tumor but not to normal mouse liver, FIG. 8D.

[4] = peptide toxicity, animal necropsy histology (H&E); format: in vivo, mouse; conditions: brain, heart, liver, spleen, lung, kidney, stomach, colon
Procedure: Mice were sacrificed at […].
Tumor bearing mice were euthanized on day 0 and 15 post-injection of the HPD*-IRDye800 and control peptides. Whole blood (~600 μL) was collected by cardiac puncture and submitted for standard hematology and chemistry. Major organs, including liver, kidney, heart, lung, spleen, stomach, intestine, and brain were resected, processed, and evaluated as routine histology (H&E). A total of 8 mice in each cohort were evaluated.

human HCC specimens = assay: immunofluorescence binding to human HCC specimens ex vivo
Procedure: Binding of HPD*-IRDye800 to human HCC specimens and metastatic lymph nodes ex vivo was examined using immunofluorescence.
The merged images show co-localization of peptide and antibody binding to HCC and normal liver, and a Pearson's correlation coefficient of p=0.68 and 0.66, respectively, were calculated. […] Results were compared with histology evaluated by an expert liver pathologist.

[5] = in vivo whole-body fluorescence imaging, PDX tumor model of HCC; set-up: species or system mouse; conditions: mouse, in vivo, iv, 300 uM in 200 ul PBS, whole-body imaging up to 24 hours, read-out: time of peak T/B ratio post-injection
Procedure: (§3) A) Images were collected with excitation at λex=800 nm before (pre) and at 0, 0.5, 1.0, 1.25, 1.5, 2, 4 and 24 hours post-injection of HPD*-IRDye800. […] PFH*-IRDye800 was administered for use as control. […] B) The quantified T/B ratio confirms a peak uptake of HPD*-IRDye800 by tumor at 1.5 hours. The adjacent non-tumor tissue region with equal area to the tumor region was used for background.
(§4) Tumor-bearing mice [a patient-derived xenograft (PDX) tumor model of HCC] were injected intravenously with the HPD*-IRDye800 and control peptides (300 μM in 200 μl PBS). Unlabeled peptide and ICG were administrated as above. The spatial extent and margins of tumors were identified using a NIR whole-body fluorescence imaging system (Pearl®, LI-COR Biosciences) up to 24 h post injection. The images were acquired using λex=800 nm with 85 μm resolution and 16.8×12 cm^2 field of view (FOV). Image Studio software (Li-Cor Biosciences) was used for analysis. Regions of interest (ROI) with area equal to that of the tumor and adjacent in location was measured for background.

[6] = tested on: patient-derived xenograft (PDX) tumor model of HCC; assay: as above; set-up: species or system mouse; conditions: over 24 hours
Procedure: as §3, §4

[7] = tested on: HCC micrometastases in lung; assay: detection of lung micrometastases (immunofluorescence); set-up: species or system mouse; conditions: lung tissue sections of PDX tumor model mice
Source text: D) Anti-cytokeratin stain confirms presence of human tumor (arrow). […] F) Corresponding histology (H&E) verifies HCC tumor in lung.
Immunofluorescence images were also collected from lung tissue sections of the PDX tumor model of HCC mice.

in vivo = conditions: mouse, iv, 150 µM, 200 uL
Procedure: (§5) A total of n=8 animals were studied per group. […] P-values were calculated using a one-way ANOVA model. Background was defined as the adjacent non-tumor region with equal area of the tumor region.

[8] = tested on: human HCC Hep3B xenograft tumors; assay: in vivo NIR fluorescence imaging of orthotopic Hep3B xenograft tumors
Procedure: as §5

EpCAM [9] = molecular target: T1, EpCAM; assay: competition assay with unlabeled peptide; format: cell-based; conditions: unlabeled competitor added at 0-120 mM
Procedure: as §1
Specific binding of HPD*-IRDye800 to EpCAM was also validated using a competition assay. Unlabeled HPD* was added to compete for binding with IRDye800-labeled HPD* with concentrations ranging from […].

[10] = molecular target: T2, Epithelial cell adhesion molecule (EpCAM) (human, UniProt P16422 24-314); assay: flow cytometry, HPD*-IRDye800 0-200 nM on Hep3B cells; apparent dissociation constant
T2 construct: whole, on cells; also called human EpCAM
T2 sequence (looked up): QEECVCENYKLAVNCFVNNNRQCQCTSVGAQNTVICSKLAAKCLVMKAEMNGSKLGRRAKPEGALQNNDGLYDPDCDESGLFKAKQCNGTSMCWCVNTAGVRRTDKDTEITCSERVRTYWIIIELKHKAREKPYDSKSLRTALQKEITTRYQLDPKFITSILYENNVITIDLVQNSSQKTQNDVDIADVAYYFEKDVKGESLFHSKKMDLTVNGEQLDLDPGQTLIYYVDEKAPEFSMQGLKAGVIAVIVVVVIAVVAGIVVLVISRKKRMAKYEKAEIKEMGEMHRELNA

## CSCC[C@H](NC(=O)[C@H](CC(=O)O)NC(=O)[C@@H]1CCCN1C(=O)[C@@H](N)Cc1c[nH]cn1)C(=O)N[C@@H](Cc1ccccc1)C(=O)N[C@H](C(=O)N[C@@H](CCCNC(=N)N)C(=O)N[C@H](C(=O)N[C@@H](Cc1c[nH]cn1)C(=O)N[C@@H](CO)C(=O)N[C@@H](Cc1c[nH]cn1)C(=O)N[C@@H](CC(N)=O)C(=O)NCC(=O)NCC(=O)NCC(=O)N[C@@H](CO)C(=O)N[C@@H](CSC1CC(=O)N(CCNC(=O)CCCCCN2C(=CC=C3CCCC(C=CC4=[N+](CCCCS(=O)(=O)[O-])c5ccc(S(=O)(=O)O)cc5C4(C)C)=C3Oc3ccc(S(=O)(=O)O)cc3)C(C)(C)c3cc(S(=O)(=O)O)ccc32)C1=O)C(N)=O)[C@@H](C)O)[C@@H](C)O (some centres unmarked) [HPD*-IRDye800] (H-HPDMFTRTHSHNGGGSC(X1)-NH2; N-terminus and C-terminus assumed)
EpCAM [1]
  fluorescence intensity / cell surface staining, siEpCAM versus siCL: Decreased cell surface staining; also recorded: reduced intensity
EpCAM [1]; confocal microscopy, control siRNA Hep3B cells
  binding to the surface of siCL (control) Hep3B cells: strong binding
EpCAM [2]; confocal microscopy
  binding to the surface of Hep3B human HCC cells: bind intensely
EpCAM [2]; merged image, Hep3B cells
  Pearson's correlation coefficient, co-localization with anti-EpCAM-AF488: 0.81
[3]
  half-life: 2.6 h
Human HCC tumor
  staining of HCC tumor cell surface (but not normal mouse liver): strong staining; also recorded: Bright fluorescence
[4]
  acute toxicity on histology (H&E) of vital organs: No signs of acute toxicity
Human HCC specimens; HCC n=36, normal n=12
  fold increase in mean fluorescence intensity, HCC versus normal human liver: 2.6 fold
Human HCC specimens; human HCC sections
  Pearson's correlation coefficient, co-localization with anti-EpCAM-AF488: 0.68
Human HCC specimens; human specimens ex vivo
  AUC of ROC curve, HCC versus normal: 0.81
  sensitivity to distinguish HCC from normal (ROC): 85%
  specificity to distinguish HCC from normal (ROC): 66%
Human HCC specimens; immunofluorescence
  mean fluorescence intensity, binding to HCC versus normal human liver: significantly greater
Human HCC specimens; immunofluorescence, human specimens
  staining of the surface of human HCC cells: Intense staining; also recorded: strong staining
Human HCC specimens; normal human liver sections
  Pearson's correlation coefficient, co-localization with anti-EpCAM-AF488: 0.66
[5]
  tissue to tissue ratio: 1.5
[6]
  tumor uptake / T/B ratio in whole-body images: greater uptake
[7]
  detection of / binding to HCC micrometastases in lung: detected very small tumor volumes in the form of micrometastases; also recorded: strong binding
In vivo
  tissue to tissue ratio: 1.5
[8]; Hep3B xenograft tumors, post-injection
  time to near complete clearance / signal back to baseline: ~ 48 hours
[8]; […] post-injection, Hep3B xenograft
  NIR fluorescence intensity of tumor versus PFH*-IRDye800: significantly greater
[8]; […] post-injection, tail vein, Hep3B xenograft
  mean tumor intensity, fold greater than PFH*-IRDye800: > 3.2 fold

## PFHDMHSNHTRT [PFH*, Unlabeled scrambled peptide (control), reference compound]
EpCAM [1]
  fluorescence intensity / cell surface staining, siEpCAM versus siCL: non-significant difference

## CC1(C)C(/C=C/C=C/C=C/C=C2\N(CCCCS(=O)(=O)[O-])c3ccc4ccccc4c3C2(C)C)=[N+](CCCCS(=O)(=O)[O-])c2ccc3ccccc3c21.[Na+] [ICG, reference compound]
[6]
  tumor uptake / T/B ratio in whole-body images: non-specific uptake
[8]; Hep3B xenograft tumors, imaged 0-48 hours
  time of peak uptake / peak T/B ratio post-injection: over 48 hours

## HPDMFTRTHSHN [HPD*, Optimized EpCAM-specific peptide, unlabeled]
EpCAM [1]
  fluorescence intensity / cell surface staining, siEpCAM versus siCL: significantly greater signal for siCL versus siEpCAM
EpCAM [9]
  mean fluorescence intensity from HPD*-IRDye800 with competition from unlabeled peptide: Decreased intensity; also recorded: decreased significantly
[6]
  tumor uptake / T/B ratio in whole-body images: reduced values

B1: HPD*-IRDye800 (peptide)
peptide: HPDMFTRTHSHNGGGSC
modifications: also: IRDye800 attached via C-terminal GGGSC linker
notes: also called IRDye800-labeled HPD*; EpCAM-specific peptide conjugate
[10]
  Kd: 43 nM
